Measured values published in patent US9663526B2, “Aminopyrimidinyl compounds” (Pfizer Inc., priority 2014, dated 2017).
Read-outs that look alike come from different tables or passages of the source.

Assays:
Format in all cases: biochemical
[1] = molecular target: recombinant human kinase domain of JAK1 (Homo sapiens (Human), UniProt P23458); test: JAK Caliper enzyme assay at 1 mM ATP (JAK1);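 note: microfluidic mobility-shift readout of synthetic fluorescent peptide phosphorylation, percent product converted from peak height, inhibition relative to DMSO-only wells as uninhibited baseline, room temperature incubation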
[2] = molecular target: recombinant human kinase domain of JAK3 (Homo sapiens (Human), UniProt P52333); test: JAK Caliper enzyme assay at 1 mM ATP (JAK3);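 note: microfluidic mobility-shift readout of synthetic peptide phosphorylation, percent product converted from peak heights, normalized to DMSO-only wells as uninhibited baseline, room temperature incubation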
[3] = molecular target: recombinant human kinase domain of TYK2 (Homo sapiens (Human), UniProt P29597); test: JAK Caliper enzyme assay at 1 mM ATP (TYK2); conditions: 1 mM ATP; read-out: IC50 (nM) TYK2;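 note: microfluidic mobility-shift readout of synthetic peptide phosphorylation by TYK2, tuned to 20–30% conversion at room temperature, reaction stopped with EDTA, DMSO-only wells as uninhibited baseline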
[4] = molecular target: recombinant human kinase domain of JAK2 (Homo sapiens (Human), UniProt O60674); test: JAK Caliper enzyme assay at 1 mM ATP (JAK2);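 note: microfluidic mobility-shift read-out of fluorescent synthetic peptide phosphorylation, percent product converted from peak heights, room temperature, DMSO-only wells as uninhibited baseline, inhibition curve fit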
[5] = 1 mM ATP, read-out: IC50 (nM) JAK1
[6] = 1 mM ATP, read-out: IC50 (nM) JAK3

recombinant human kinase domain of JAK2, sequence (O60674 849-1124): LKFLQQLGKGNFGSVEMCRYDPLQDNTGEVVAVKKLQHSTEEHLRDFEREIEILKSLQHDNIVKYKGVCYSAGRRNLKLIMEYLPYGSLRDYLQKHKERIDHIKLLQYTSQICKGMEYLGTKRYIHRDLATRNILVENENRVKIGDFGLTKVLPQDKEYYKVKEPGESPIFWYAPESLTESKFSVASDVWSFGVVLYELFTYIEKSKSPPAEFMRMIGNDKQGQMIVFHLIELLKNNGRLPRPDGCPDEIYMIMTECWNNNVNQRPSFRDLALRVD
recombinant human kinase domain of JAK1, sequence (P23458 875-1153): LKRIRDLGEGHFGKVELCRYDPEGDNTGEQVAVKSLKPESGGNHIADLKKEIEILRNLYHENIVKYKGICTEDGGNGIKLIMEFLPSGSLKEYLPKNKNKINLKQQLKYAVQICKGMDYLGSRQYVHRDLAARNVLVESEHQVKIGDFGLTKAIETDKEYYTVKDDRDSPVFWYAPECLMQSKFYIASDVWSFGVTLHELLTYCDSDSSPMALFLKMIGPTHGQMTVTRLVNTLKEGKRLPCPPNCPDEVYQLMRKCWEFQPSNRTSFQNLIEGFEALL
recombinant human kinase domain of TYK2, sequence (P29597 897-1176): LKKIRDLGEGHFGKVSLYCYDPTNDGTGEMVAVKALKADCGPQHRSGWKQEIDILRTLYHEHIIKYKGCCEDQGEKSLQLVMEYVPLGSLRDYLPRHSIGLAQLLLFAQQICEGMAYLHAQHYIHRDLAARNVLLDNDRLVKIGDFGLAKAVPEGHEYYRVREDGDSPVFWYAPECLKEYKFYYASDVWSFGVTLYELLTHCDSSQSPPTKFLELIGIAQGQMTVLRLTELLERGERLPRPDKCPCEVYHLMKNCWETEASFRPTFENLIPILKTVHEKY
recombinant human kinase domain of JAK3, sequence (P52333 822-1111): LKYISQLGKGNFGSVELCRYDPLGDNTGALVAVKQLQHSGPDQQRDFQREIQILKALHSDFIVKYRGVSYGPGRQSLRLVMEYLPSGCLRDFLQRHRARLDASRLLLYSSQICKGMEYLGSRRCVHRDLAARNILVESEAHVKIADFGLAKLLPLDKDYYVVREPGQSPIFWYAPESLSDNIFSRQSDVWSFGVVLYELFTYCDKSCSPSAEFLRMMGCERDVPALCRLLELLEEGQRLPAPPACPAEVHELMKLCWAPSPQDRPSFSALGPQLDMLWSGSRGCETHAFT

Row | SMILES | IC50 [1, 5] [nM] | IC50 [2, 6] [nM] | IC50 [3] [nM] | IC50 [4] [nM] | IC50 [1] [nM] | IC50 [2] [nM]
1 | C[C@H](CO)c1ccc(Nc2ncc(F)c(N3C[C@H]4[C@@H](C)[C@@]4(NC(=O)C4CC4)C3)n2)cn1 (single isomer, unassigned) [Example 104] | 1150 | > 10000 | 86 | 3130 | – | –
2 | CCNC(=O)c1ccc(Nc2ncc(F)c(N3CC4CC(C3)N4C(=O)C(F)(F)F)n2)cc1C [Example 116, N-ethyl-4-({5-fluoro-4-[6-(trifluoroacetyl)-3,6-diazabicyclo[3.1.1]hept-3-yl]pyrimidin-2-yl}amino)-2-methylbenzamide] | 1470 | 9820 | 20 | – | – | –
3 | O=C(C1CC1)N1[C@@H]2CC[C@H]1CN(c1nc(Nc3ccnnc3)ncc1F)C2 [Example 1, cyclopropyl{(1R,5S)-3-[5-fluoro-2-(pyridazin-4-ylamino)pyrimidin-4-yl]-3,8-diazabicyclo[3.2.1]oct-8-yl}methanone] | 2730 | > 10000 | 1100 | > 10000 | – | –
4 | Cn1cc(Nc2nccc(N3C[C@H]4CC[C@@H](C3)N4C(=O)[C@@H]3C[C@@H]3F)n2)cn1 [Example 43, [(1S,2S)-2-fluorocyclopropyl][(1R,5S)-3-{2-[(1-methyl-1H-pyrazol-4-yl)amino]pyrimidin-4-yl}-3,8-diazabicyclo[3.2.1]oct-8-yl]methanone] | 902 | > 10000 | 474 | 2840 | – | –
5 | Cn1cc(Nc2nccc(N3C[C@H]4CC[C@@H](C3)N4C(=O)NCCC#N)n2)cn1 [Example 47, (1R,5S)—N-(2-cyanoethyl)-3-{2-[(1-methyl-1H-pyrazol-4-yl)amino]pyrimidin-4-yl}-3,8-diazabicyclo[3.2.1]octane-8-carboxamide] | 42 | > 10000 | 65 | – | – | –
6 | CCNC(=O)c1ccc(Nc2ncc(F)c(N3C[C@H]4CC[C@@H](C3)N4C(=O)OC(C)(C)C)n2)cc1C [Example 73, tert-butyl 3-(2-{[4-(ethylcarbamoyl)-3-methylphenyl]amino}-5-fluoropyrimidin-4-yl)-3,8-diazabicyclo[3.2.1]octane-8-carboxylate] | 260 | 1770 | 17 | 170 | – | –
7 | C[C@@H]1[C@@H]2CN(c3nc(Nc4ccc([C@@H](C)CO)nc4)ncc3F)C[C@]12NC(=O)C1CC1 (single isomer, unassigned) [Example 103] | 1740 | > 10000 | 150 | 3460 | – | –
8 | Cn1cc(Nc2nccc(N3C[C@H]4CC[C@@H](C3)N4C(=O)Nc3ccc(C(F)(F)F)cn3)n2)cn1 [Example 48, (1R,5S)-3-{2-[(1-methyl-1H-pyrazol-4-yl)amino]pyrimidin-4-yl}-N-[5-(trifluoromethyl)pyridin-2-yl]-3,8-diazabicyclo[3.2.1]octane-8-carboxamide] | 300 | > 10000 | 964 | 2510 | – | –
9 | Cn1cc(Nc2nccc(N3C[C@H]4CC[C@@H](C3)N4C[C@H]3CC3(F)F)n2)cn1 [Example 63, 4-[(1R,5S)-8-{[(1R)-2,2-difluorocyclopropyl]methyl}-3,8-diazabicyclo[3.2.1]oct-3-yl]-N-(1-methyl-1H-pyrazol-4-yl)pyrimidin-2-amine] | 303 | > 10000 | 125 | 856 | – | –
10 | CCNC(=O)c1ccc(Nc2ncc(F)c(N3C[C@H]4CC[C@@H](C3)N4C(=O)C(F)(F)F)n2)cc1C [Example 72, N-ethyl-4-({5-fluoro-4-[8-(trifluoroacetyl)-3,8-diazabicyclo[3.2.1]oct-3-yl]pyrimidin-2-yl}amino)-2-methylbenzamide] | 81 | 411 | – | 151 | – | –
11 | CNC(=O)c1ncc(Nc2nccc(N3C[C@H]4CC[C@@H](C3)N4[C@H]3C[C@H](C#N)C3)n2)cc1C (single isomer, unassigned) [Example 62] | – | – | 224 | 1390 | 1020 | > 10000
12 | C[C@@H]1[C@@H]2CN(c3nc(Nc4cnc(CO)c(Cl)c4)ncc3F)C[C@]12NC(=O)C1CC1 [Example 105, N-[(1S,5R,6R)-3-(2-{[5-chloro-6-(hydroxymethyl)pyridin-3-yl]amino}-5-fluoropyrimidin-4-yl)-6-methyl-3-azabicyclo[3.1.0]hex-1-yl]cyclopropanecarboxamide] | 1570 | > 10000 | 152 | 6100 | – | –
13 | O=C(c1ccno1)N1[C@@H]2CC[C@H]1CN(c1ccnc(Nc3cn[nH]c3)n1)C2 [Example 17, 1,2-oxazol-5-yl{(1R,5S)-3-[2-(1H-pyrazol-4-ylamino)pyrimidin-4-yl]-3,8-diazabicyclo[3.2.1]oct-8-yl}methanone] | 684 | > 10000 | 242 | 3380 | – | –
14 | CNC(=O)c1ncc(Nc2nccc(N3C[C@H]4CC[C@@H](C3)N4CC3(C)COC3)n2)cc1C [Example 54, N,3-dimethyl-5-[(4-{(1R,5S)-8-[(3-methyloxetan-3-yl)methyl]-3,8-diazabicyclo[3.2.1]oct-3-yl}pyrimidin-2-yl)amino]pyridine-2-carboxamide] | 19 | 4290 | 8 | – | – | –
15 | Cn1cc(Nc2nccc(N3C[C@H]4CC[C@@H](C3)N4C[C@H]3C[C@@H]3C#N)n2)cn1 [Example 70, (1S,2S)-2-{[(1R,5S)-3-{2-[(1-methyl-1H-pyrazol-4-yl)amino]pyrimidin-4-yl}-3,8-diazabicyclo[3.2.1 l]oct-8-yl]methyl}cyclopropanecarbonitrile] | 259 | > 10000 | 261 | 1540 | – | –
16 | O=C(C1CC1)N1[C@@H]2CC[C@H]1CN(c1ccnc(Nc3cnsc3)n1)C2 [Example 52, cyclopropyl{(1R,5S)-3-[2-(1,2-thiazol-4-ylamino)pyrimidin-4-yl]-3,8-diazabicyclo[3.2.1]oct-8-yl}methanone] | 172 | > 10000 | 93 | 1240 | – | –
17 | Cc1cc(Nc2nccc(N3C[C@H]4CC[C@@H](C3)N4C(=O)C3CC3(F)F)n2)cnc1C(N)=O (stereo partly drawn) [Example 34, 5-[(4-{(1R,5S)-8-[(2,2-difluorocyclopropyl)carbonyl]-3,8-diazabicyclo[3.2.1]oct-3-yl}pyrimidin-2-yl)amino]-3-methylpyridine-2-carboxamide] | 152 | > 10000 | – | 377 | – | –
18 | Cn1cc(Nc2nccc(N3C[C@H]4CC[C@@H](C3)N4C(N)=O)n2)cn1 [Example 76, (1R,5S)-3-{2-[(1-methyl-1H-pyrazol-4-yl)amino]pyrimidin-4-yl}-3,8-diazabicyclo[3.2.1]octane-8-carboxamide] | 537 | > 10000 | 662 | 1480 | – | –
19 | Cn1cc(Nc2nccc(N3C[C@H]4CC[C@@H](C3)N4C(=O)C3CC(F)(F)C3)n2)cn1 [Example 39, (3,3-difluorocyclobutyl)[(1R,5S)-3-{2-[(1-methyl-1H-pyrazol-4-yl)amino]pyrimidin-4-yl}-3,8-diazabicyclo[3.2.1]oct-8-yl]methanone] | 305 | > 10000 | 136 | 1170 | – | –
20 | CNC(=O)c1ncc(Nc2nccc(N3C[C@H]4CC[C@@H](C3)N4C[C@H]3CC3(F)F)n2)cc1C [Example 68, 5-({4-[(1R,5S)-8-{[(1R)-2,2-difluorocycloproDyl]methyl}-3,8-diazabicyclo[3.2.1]oct-3-yl]pyrimidin-2-yl}amino)-N,3-dimethylpyridine-2-carboxamide] | 85 | > 10000 | 22 | 188 | – | –
21 | N#CC1(CN2[C@@H]3CC[C@H]2CN(c2ccnc(Nc4cn[nH]c4)n2)C3)CC1 [Example 71, 1-({(1R,5S)-3-[2-(1H-pyrazol-4-ylamino)pyrimidin-4-yl]-3,8-diazabicyclo[3.2.1]oct-8-yl}methyl)cyclopropanecarbonitrile] | 153 | > 10000 | 152 | – | – | –
22 | NC(=O)c1ncc(Nc2nccc(N3C[C@H]4CC[C@@H](C3)N4C(=O)[C@@H]3CC3(F)F)n2)cc1F [Example 117, 5-({4-[(1R,5S)-8-{[(1S)-2,2-Difluorocyclopropyl]carbonyl}-3,8-diazabicyclo[33.2.1]oct-3-yl]pyrimidin-2-yl}amino)-3-fluoropyridine-2-carboxamide] | 114 | > 10000 | – | 452 | – | –
23 | C[C@@H]1[C@@H]2CN(c3nc(Nc4cnc([C@@H](C)O)c(Cl)c4)ncc3F)C[C@]12NC(=O)C1CC1 [Example 106, N-{(1S,5R,6R)-3-[2-({5-chloro-6-[(1R)-1-hydroxyethyl]pyridin-3-yl}amino)-5-fluoropyrimidin-4-yl]-6-methyl-3-azabicyclo[3.1.0]hex-1-yl}cyclopropanecarboxamide] | – | > 10000 | – | 9410 | – | –
24 | NS(=O)(=O)c1ccc(Nc2ncc(F)c(N3C[C@H]4CC[C@@H](C3)N4C(=O)C3CC3)n2)cn1 [Example 4, 5-({4-[(1R,5S)-8-(cyclopropylcarbonyl)-3,8-diazabicyclo[3.2.1]oct-3-yl]-5-fluoropyrimidin-2-yl}amino)pyridine-2-sulfonamide] | 659 | > 10000 | 176 | – | – | –
25 | O=C([C@H]1CC1(F)F)N1[C@@H]2CC[C@H]1CN(c1ccnc(Nc3cn[nH]c3)n1)C2 [Example 50, ((1R,5S)-3-(2-((1H-Pyrazol-4-yl)amino)pyrimidin-4-yl)-3,8-diazabicyclo[3.2.1]octan-8-yl)((R)-2,2-difluorocyclopropyl)methanone] | 478 | > 10000 | – | 3420 | – | –
26 | CCNC(=O)c1ccc(Nc2nccc(N3C[C@H]4CC[C@@H](C3)N4C(=O)CC#N)n2)cc1 [Example 13, 4-({4-[(1R,5S)-8-(cyanoacetyl)-3,8-diazabicyclo[3.2.1]oct-3-yl]pyrimidin-2-yl}amino)-N-ethylbenzamide] | 41 | > 10000 | – | 199 | – | –
